Measurements published in article PMC6102577, “Discovery of Pyrazolo[4,3-c]quinolines Derivatives as Potential Anti-Inflammatory Agents through Inhibiting of NO Production” (Molecules : A Journal of Synthetic Chemistry and Natural …, 2018).
Several values for one entry are separate records, joined by “and”; a condition that tells them apart may be missing. Identical values can stand only once. Like-named read-outs stand apart in the source and are kept apart here.

What was measured:
RAW 264.7 cells = assay: Cell viability (XTT method) of RAW 264.7 cells; format: cell-based; details: compound 10 μM, 24 h, means ± S.D.
Protocol: To evaluate whether the suppressive effect of compounds on NO production is related to cell viability, Raw 264.7 cells were treated with LPS for 24 h, and washed with 500 μL of phosphate buffer solution (PBS) before resuspended in 1 mL of culture medium. Cell viability tests were run in parallel with NO production assays with an initial cell density of 5 × 10^3 cells/well in the presence or absence of test compounds at 10 μM or 0.1% DMSO as control.

[1] = system: LPS-stimulated NO production in RAW 264.7 cells; assay: Inhibition of LPS-induced NO production (nitrite accumulation, Griess reaction) in RAW 264.7 cells; format: cell-based; details: for inhibition at 10 µM: compound 10 μM, read-out: Percent Inhibition of NO Production at 10 μM
Protocol: Treatment of Raw 264.7 cells with LPS (0.1 μg/mL) for 24 h induced NO production which were assessed by measuring the accumulation of nitrite, a stable metabolite of NO, in the media based on Griess reaction. […] However, compound 2a was also highly cytotoxic, in which the survival rate of RAW 264.7 cells was only 9% at a drug concentration of 10 μM. […] The position of substitution play an important role in which substitution at para-position is usually more favorable than its ortho- or meta- counterpart in the inhibitory activity on the LPS-induced NO production. […] Various substituted groups have been introduced on the para-position of the phenyl ring.
Raw 264.7 cells, purchased from Bioresource Collection and Research Center, Taiwan, were cultured in DMEM, supplemented with 5% fetal bovine serum, 100 units/mL of penicillin, 100 μg/mL of streptomycin, 2 mM L-glutamine, and 1 mM non-essential amino acids in a 10-cm plate at a density of 1 × 10^6 cells/mL, at 37 °C in a humidified atmosphere containing 5% CO2.
Nitrite was measured by adding 100 μL of the Griess reagent (1% sulfanilamide and 0.1% N-(1-naphthyl)ethylenediamine dihydrochloride in 5% phosphoric acid) to 100 μL of medium for 5 min. The optical density at 550 nm (OD550) was measured with a microplate reader. Concentrations were calculated by comparison with the OD550 of a standard solution of sodium nitrite prepared in culture medium.

COX-2 protein expression = assay: LPS-inducible COX-2 protein expression in RAW 264.7 cells (western blot); format: cell-based, murine; details: pretreated 2 h, LPS 0.1 μg/mL 24 h
Protocol: The effects of compounds 2i and 2m on iNOS and COX-2 protein expression in LPS stimulated Raw 264.7 cell were assessed by western blot. Briefly, Raw 264.7 cells were pretreated with tested compound for 2 h before stimulation in the presence or absence of LPS (0.1 μg/mL). Cells were harvested and lysed with RIPA lysis buffer (50 mM Tris–Cl, pH 8.0, 150 mM NaCl, 0.1% SDS, 0.5% NP-40, 1% sodiumdeoxycholate, 1 mM phenylmethyl-sulfonylfluoride, 1 mM EDTA, no added proteinase) at 24 h after treatment. The total protein concentration in the cell lysates was measured according to the method described by Bradford. Equal amounts (15 μg) of protein were loaded and separated by using 8% SDS–PAGE and analyzed by western blot (ECL Amersham, Bensheim, Germany). The relative expression of proteins was quantified densitometrically using the software LabWorks 4.5 and was normalized againstβ-actin.
Figure 4 Inhibition of COX-2 expression by compound 2i and 2m in LPS-stimulated RAW 264.7 cells. Cells (5 × 10^5 cells/well) were pretreated with the indicated concentrations of tested compounds for 2 h before incubation with 0.1 μg/mL LPS for 24 h. Cell lysates were then prepared and western blots were performed using an antibody specific for murine COX-2.

[2] = NO-scavenging activity (sodium nitroprusside, nitrite by Griess reaction); details: SNP 2.5 mM, compound 10 μM, light, room temperature, 60 min
Protocol: NO-scavenging effects of pyrazolo[4,3-c]quinolines 2i and 2m were measured according to the reported method. Sodium nitroprusside (SNP) (2.5 mM) was incubated alone or in combination with tested compound (10 μM) or 1400W(10 μM) in light at room temperature for 60 min.
To understand the inhibitory effects of compounds 2i and 2m on NO production, sodium nitroprusside (SNP) was freshly prepared at […] in PBS was incubated alone or in combination with 10 µM of the different compounds. SNP is an inorganic complex where NO is found as NO^+ and light irradiation is necessary for the release of NO. Therefore, incubation mixtures were incubated in light at room temperature, and nitrite levels were determined after 60 min by Griess reaction.
Figure 1 NO-scavenging effects of 1400W, compounds 2i and 2m. SNP solution (2.5 mM) in PBS was incubated alone or with tested compound (10 μM) or 1400W (10 μM) in the presence of light at room temperature for 60 min.

iNOS mRNA expression = assay: LPS-induced iNOS mRNA expression in RAW 264.7 cells (RT-PCR); format: cell-based; details: pretreated 2 h, LPS 0.1 μg/mL
Excerpt: Total RNA was extracted by Trizol-Reagent (Invirogen, Carlsbad, CA, USA) according to the manufacturer’s manual. One microgram of RNA was used for the reverse transcription of first strand cDNA using the oligo dT primers. Five microliters of cDNA were used for the amplification of iNOS and GAPDH (glyceraldehyde 3-phosphate dehydrogenase) mRNA expression. The primers for rat iNOS are as follows, forward: 5′-ACTGCGTCGCTTCATTAGGT-3′ and reverse: 5′-TAGGCAAGCGCTTTACCACT-3′. The primers for rat glyceraldehydes 3-phosphate dehydrogenase are as follows, forward: 5′-ATGGCACAGTCAAGGCTGAGA-3′ reverse: 5′-AGACGCCAGTAGACTCCACGAC-3′. The amplicons were electrophoresed on a 3% agarose gel and band intensities were measured using a spectrophotometer (Thermo Fisher Scientific, Waltham, MA, USA) and normalized against GAPDH.
Figure 3 Inhibitory effects of compound 2i and 2m on LPS-induced iNOS mRNA expression. Cells (5 × 10^5 cells/well) were pretreated with the indicated concentrations of tested compounds for 2 h before incubation with 0.1 μg/mL LPS for 9 h. Total RNA was prepared for RT-PCR analysis of iNOS mRNA expression in LPS-stimulated RAW 264.7 cells. GAPDH were used as internal controls for the RT-PCR assays3.4. Inhibition of LPS-inducible COX-2 expression.

[3] = Mus musculus, RAW264.7, 24 h, RAW 264.7 cells, LPS 0.1 μg/mL 24 h, means ± S.D., read-out: IC50 (inhibition of LPS-induced NO production)
[4] = Mus musculus, RAW264.7, training dataset, negative logarithm of IC50 values, read-out: Observed pIC50 (converted)
[5] = Mus musculus, RAW264.7, RAW 264.7 cells, LPS 0.1 μg/mL 24 h, means ± S.D.
[6] = Mus musculus, RAW264.7, test dataset, negative logarithm of IC50 values, read-out: Observed pIC50 (converted)
[7] = Mus musculus, RAW264.7, RAW 264.7 cells, LPS 0.1 μg/mL 24 h, means ± S.D., read-out: IC50 (inhibition of LPS-induced NO production)

Row | SMILES | IC50 [1, 3] [nM] | IC50 [1, 4] [nM] | melting point [°C] | IC50 [1, 6] [nM] | IC50 ([1]; RAW 264.7 cells, LPS 0.1 μg/mL 24 h, means ± S.D., read-out: IC50 (inhibition of LPS-induced NO production)) [nM] | Cell Survival Rate at 10 μM (RAW 264.7 cells) | inhibition at 10 µM [1, 5] [%] | IC50 [1, 7] [nM] | Inhibition of LPS-induced COX-2 protein expression (COX-2 protein expression) | NO-scavenging effect (levels of nitrite from SNP) [2] | Inhibition of LPS-stimulated iNOS mRNA expression (iNOS mRNA expression)
1 | Nc1n[nH]c2c1c(Nc1ccccc1)nc1ccccc12 [Compound 2a, 3-Amino-4-phenylamino-1H-pyrazolo[4,3-c]quinoline] | 390 ± 80 | 390 |  |  |  | 9% and 9.09 ± 0.24% | 81.7 ± 0.99 |  |  |  | 
2 | Nc1n[nH]c2c1c(Nc1ccccc1O)nc1ccccc12 [Compound 2b] | 420 ± 110 | 420 |  |  |  | 53.48 ± 1.53% | 103 ± 6.55 |  |  |  | 
3 | COc1ccccc1Nc1nc2ccccc2c2[nH]nc(N)c12 [Compound 2c, 3-Amino-4-(2-methoxyphenylamino)-1H-pyrazolo[4,3-c]quinoline] |  |  | 210 to 211 | 490 |  | 47.31 ± 1.67% | 82.2 ± 6.49 | 490 ± 140 |  |  | 
4 | Nc1n[nH]c2c1c(Nc1cccc(O)c1)nc1ccccc12 [Compound 2d] | 770 ± 230 |  |  | 770 |  | 81.70 ± 0.09% | 93.5 ± 7.57 |  |  |  | 
5 | COc1cccc(Nc2nc3ccccc3c3[nH]nc(N)c23)c1 [Compound 2e, 3-Amino-4-(3-methoxyphenylamino)-1H-pyrazolo[4,3-c]quinoline] | 770 |  | 184 to 186 | 720 | 720 ± 180 | 94.32 ± 0.49% | 101 ± 1.31 |  |  |  | 
6 | Nc1n[nH]c2c1c(Nc1ccc(F)cc1)nc1ccccc12 [Compound 2h] | 410 ± 70 |  |  | 410 |  | 89.99 ± 0.02% | 94.8 ± 9.47 |  |  |  | 
7 | Nc1ccc(Nc2nc3ccccc3c3[nH]nc(N)c23)cc1 [Compound 2j] | 920 ± 50 | 920 |  |  |  | 90.26 ± 0.05% | 95.1 ± 3.75 |  |  |  | 
8 | COc1ccc(Nc2nc3ccccc3c3[nH]nc(N)c23)cc1 [Compound 2k] | 480 ± 140 |  |  | 480 |  | 90.57 ± 0.03% | 90.8 ± 11.9 |  |  |  | 
9 | Cc1ccc(Nc2nc3ccccc3c3[nH]nc(N)c23)cc1 [Compound 2o] | 470 ± 70 | 470 |  |  |  | 84.53 ± 0.04% | 100 ± 3.02 |  |  |  | 
10 | Nc1n[nH]c2c1c(Nc1ccc([N+](=O)[O-])cc1)nc1ccccc12 [Compound 2p] | 400 ± 90 | 400 |  |  |  | 90.86 ± 0.32% | 89.11 ± 0.86 |  |  |  | 
11 | CC(=N)NCc1cccc(CN)c1.Cl.Cl [Compound 1400w, N-[[3-(Aminomethyl)-phenyl]methyl]-ethanimidamide dihydrochloride, reference compound] |  |  |  |  |  | 99.54 ± 2.51% | 102 ± 2.16 | 200 ± 20 |  | did not affect the levels of nitrite | 

The next lines start with results.

Row | IC50 [1, 3] [nM] | IC50 [1, 4] [nM] | melting point [°C] | IC50 [1, 6] [nM] | IC50 ([1]; RAW 264.7 cells, LPS 0.1 μg/mL 24 h, means ± S.D., read-out: IC50 (inhibition of LPS-induced NO production)) [nM] | SMILES | Cell Survival Rate at 10 μM (RAW 264.7 cells) | inhibition at 10 µM [1, 5] [%] | IC50 [1, 7] [nM] | Inhibition of LPS-induced COX-2 protein expression (COX-2 protein expression) | NO-scavenging effect (levels of nitrite from SNP) [2] | Inhibition of LPS-stimulated iNOS mRNA expression (iNOS mRNA expression)
12 | 290 ± 60 |  | > 380 | 290 |  | CC(=O)c1cccc(Nc2nc3ccccc3c3[nH]nc(N)c23)c1 [Compound 2f, 3-Amino-4-(3-acetylphenylamino)-1H-pyrazolo[4,3-c]quinoline] | 94.37 ± 0.36% | 99.1 ± 2.16 |  |  |  | 
13 | 320 ± 50 | 320 |  |  |  | Nc1n[nH]c2c1c(Nc1ccc(Cl)cc1)nc1ccccc12 [Compound 2g] | 81.61 ± 0.14% | 104 ± 6.71 |  |  |  | 
14 | 290 ± 80 | 290 |  |  |  | CC(=O)c1ccc(Nc2nc3ccccc3c3[nH]nc(N)c23)cc1 [Compound 2l] | 87.80 ± 0.11% | 102 ± 6.49 |  |  |  | 
15 | 220 ± 70 | 250 |  |  |  | Nc1n[nH]c2c1c(Nc1ccc(C(=O)O)cc1)nc1ccccc12 [Compound 2m, 4-(3-amino-1H-pyrazolo[4,3-c]quinolin-4-ylamino)benzoic acid] | 85.42 ± 0.77% | 87.7 ± 9.93 |  | effectively suppressed the induction of COX-2 protein expression by LPS | did not affect the levels of nitrite | inhibited the LPS-stimulated iNOS mRNA production in a dose-dependent manner
16 | 360 ± 90 | 360 |  |  |  | Nc1n[nH]c2c1c(Nc1ccc(C(F)(F)F)cc1)nc1ccccc12 [Compound 2n] | 69.14 ± 0.62% | 107 ± 2.48 |  |  |  | 
17 | 360 ± 80 | 360 | 269 to 271 |  |  | CSc1ccc(Nc2nc3ccccc3c3[nH]nc(N)c23)cc1 [Compound 2q, 3-Amino-4-(4-methylthiophenylamino)-1H-pyrazolo[4,3-c]quinoline] | 89.62 ± 0.05% | 102 ± 7.01 |  |  |  | 
18 | 350 ± 60 | 350 | 161 to 162 |  |  | COc1cc(Nc2nc3ccccc3c3[nH]nc(N)c23)cc(OC)c1OC [Compound 2r, 3-Amino-4-(3,4,5-trimethoxyphenylamino)-1H-pyrazolo[4,3-c]quinoline] | 85.24 ± 0.04% | 107 ± 2.58 |  |  |  | 
